The target in the assay is Cdk9/cyclinT1 (Homo sapiens, UniProt P50750). Kind of assay: Cdk9/cyclinT1 IMAP protocol (fluorescence polarization). As to conditions: IC-50, CDK9; lower limit of assay 0.0005 micromolar.

Structures are written as SMILES. Bounds are passed on as bounds.

Broadly, the IC50 is the concentration at which inhibition is half-maximal.

Sequence of Cdk9/cyclinT1 (P50750 whole entry): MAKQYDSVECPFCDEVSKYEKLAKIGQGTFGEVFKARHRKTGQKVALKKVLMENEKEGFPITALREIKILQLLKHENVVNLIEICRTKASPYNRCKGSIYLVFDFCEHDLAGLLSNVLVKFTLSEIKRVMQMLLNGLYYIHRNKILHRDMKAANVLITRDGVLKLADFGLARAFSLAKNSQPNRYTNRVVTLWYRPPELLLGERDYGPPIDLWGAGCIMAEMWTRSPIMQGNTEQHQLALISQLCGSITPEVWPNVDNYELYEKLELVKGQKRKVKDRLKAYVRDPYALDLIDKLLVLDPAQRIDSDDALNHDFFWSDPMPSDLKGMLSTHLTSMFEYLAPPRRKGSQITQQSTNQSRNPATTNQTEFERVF
Sequence of Cdk9/cyclinT1 (O60563 whole entry partner): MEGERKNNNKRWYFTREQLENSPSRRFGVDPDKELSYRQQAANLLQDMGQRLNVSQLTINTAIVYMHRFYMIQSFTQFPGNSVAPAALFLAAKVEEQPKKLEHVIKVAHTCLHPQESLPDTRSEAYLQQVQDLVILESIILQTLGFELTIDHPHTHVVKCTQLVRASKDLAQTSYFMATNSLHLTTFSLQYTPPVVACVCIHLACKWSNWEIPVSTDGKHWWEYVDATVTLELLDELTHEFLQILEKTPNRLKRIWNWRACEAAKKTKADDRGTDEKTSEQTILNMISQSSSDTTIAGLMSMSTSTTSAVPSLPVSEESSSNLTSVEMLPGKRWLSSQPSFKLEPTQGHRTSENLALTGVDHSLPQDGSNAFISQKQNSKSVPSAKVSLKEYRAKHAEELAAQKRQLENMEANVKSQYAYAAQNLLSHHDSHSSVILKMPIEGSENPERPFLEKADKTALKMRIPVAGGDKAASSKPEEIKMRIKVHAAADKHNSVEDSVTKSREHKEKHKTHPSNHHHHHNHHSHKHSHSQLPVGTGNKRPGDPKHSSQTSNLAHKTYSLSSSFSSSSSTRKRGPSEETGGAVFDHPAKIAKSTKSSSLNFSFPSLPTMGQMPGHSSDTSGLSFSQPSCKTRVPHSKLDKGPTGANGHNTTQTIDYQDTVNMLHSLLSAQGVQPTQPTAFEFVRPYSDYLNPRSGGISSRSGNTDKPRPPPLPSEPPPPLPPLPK

Consider `COC[C@H](C)N[C@H]1CC[C@H](Nc2cc(-c3ccc(F)c(NCC4(C#N)CCOCC4)n3)c(Cl)cn2)CC1` [Compound 458, 4-(((5′-chloro-5-fluoro-2′-((trans-4-(((S)-1-methoxypropan-2-yl)amino)cyclohexyl)amino)-[2,4′-bipyridin]-6-yl)amino)methyl)tetrahydro-2H-pyran-4-carbonitrile], for which the 50% inhibitory concentration (IC50) is under 0.5 nM.

As to `N#CC1(CNc2cccc(-c3cc(N[C@H]4CC[C@H](NCC5CCCO5)CC4)ncc3Cl)n2)CCOCC1` (stereo partly drawn) [Compound 468, 4-(((5′-chloro-2′-((trans-4-(((tetrahydrofuran-2-yl)methyl)amino)cyclohexyl)amino)-[2,4′-bipyridin]-6-yl)amino)methyl)tetrahydro-2H-pyran-4-carbonitrile], the IC50 is under 0.5 nM.

Turning to `CC(C)N[C@H]1CC[C@H](Nc2cc(-c3cccc(NCC4(C#N)CCOCC4)n3)c(Cl)cn2)CC1` [Compound 412, 4-(((5′-chloro-2′-((trans-4-(isopropylamino)cyclohexyl)amino)-[2,4′-bipyridin]-6-yl)amino)methyl)tetrahydro-2H-pyran-4-carbonitrile], the half-inhibitory concentration (IC50) was under 0.5 nM.

`N#CC1(CNc2cccc(-c3cc(N[C@H]4CCCc5ccccc54)ncc3Cl)n2)CCOCC1` [Compound 501, (S)-4-(((5′-chloro-2′-((1,2,3,4-tetrahydronaphthalen-1-yl)amino)-[2,4′-bipyridin]-6-yl)amino)methyl)tetrahydro-2H-pyran-4-carbonitrile] yielded an IC50 of 480 nM.

In turn, `CO[C@H]1C[C@H](Nc2cc(-c3cccc(NCC4(C#N)CCOCC4)n3)c(Cl)cn2)CC[C@H]1N` (single isomer, unassigned) [Compound 436] registered a half-inhibitory concentration (IC50) of under 0.5 nM.

In turn, `CC(C)(C)OCCN[C@H]1CC[C@H](Nc2cc(-c3cccc(NCC4(C#N)CCOCC4)n3)c(Cl)cn2)CC1` [Compound 432, 4-(((2′-((trans-4-((2-(tert-butoxy)ethyl)amino)cyclohexyl)amino)-5′-chloro-[2,4′-bipyridin]-6-yl)amino)methyl)tetrahydro-2H-pyran-4-carbonitrile] returned an IC50 of under 0.5 nM.

Molecule `N#CC1(CNc2cccc(-c3cc(N[C@H]4CC[C@H](NCC(N)=O)CC4)ncc3Cl)n2)CCOCC1` [Compound 419, 2-((trans-4-((5′-chloro-6-(((4-cyanotetrahydro-2H-pyran-4-yl)methyl)amino)-[2,4′-bipyridin]-2′-yl)amino)cyclohexyl)amino) acetamide] returned an IC50 of under 0.5 nM.

Turning to `CC1(CNc2nc(-c3cc(N[C@H]4CC[C@@H](N)CC4)ncc3Cl)ccc2F)CCOCC1` [Compound 466], the IC50 came to 3.9 nM.

`CC(O)(C(=O)N[C@H]1CC[C@H](Nc2cc(-c3cccc(NCC4(C#N)CCOCC4)n3)c(Cl)cn2)CC1)C(F)(F)F` (stereo partly drawn) [Compound 431, N-(trans-4-((5′-chloro-6-(((4-cyanotetrahydro-2H-pyran-4-yl)methyl)amino)-[2,4′-bipyridin]-2′-yl)amino)cyclohexyl)-3,3,3-trifluoro-2-hydroxy-2-methylpropanamide] came in with a half-maximal inhibitory concentration (IC50) of 1.7 nM.

Take `COCCN[C@H]1CC[C@H](Nc2cc(-c3ccc(F)c(NCC4(C)CCOCC4)n3)c(Cl)cn2)CC1` [Compound 481, 5′-chloro-5-fluoro-N2′-(trans-4-((2-methoxyethyl)amino)cyclohexyl)-N6-((4-methyltetrahydro-2H-pyran-4-yl)methyl)-[2,4′-bipyridine]-2′,6-diamine]: the IC50 was under 0.5 nM.

The molecule `COCCN(CCOC)[C@H]1CC[C@H](Nc2cc(-c3cccc(NCC4(C#N)CCOCC4)n3)c(Cl)cn2)CC1` [Compound 446, 4-(((2′-((trans-4-(bis(2-methoxyethyl)amino)cyclohexyl)amino)-5′-chloro-[2,4′-bipyridin]-6-yl)amino)methyl)tetrahydro-2H-pyran-4-carbonitrile] gave a concentration for half-maximal inhibition (IC50) of under 0.5 nM.

In turn, `CO[C@@H]1CC[C@H](Nc2cc(-c3cccc(NCC4(C#N)CCOCC4)n3)c(Cl)cn2)C[C@H]1N` [Compound 438, 4-(((2′-(((1S,3R,4R)-3-amino-4-methoxycyclohexyl)amino)-5′-chloro-[2,4′-bipyridin]-6-yl)amino)methyl)tetrahydro-2H-pyran-4-carbonitrile] displayed a half-maximal inhibitory concentration (IC50) of 20 nM.

`CCOC(=O)C(C)(C)NC[C@H]1CC[C@H](Nc2cc(-c3cccc(NCC4(C#N)CCOCC4)n3)c(Cl)cn2)CC1` [Compound 425, ethyl 2-(((trans-4-((5′-chloro-6-(((4-cyanotetrahydro-2H-pyran-4-yl)methyl)amino)-[2,4′-bipyridin]-2′-yl)amino)cyclohexyl)methyl)amino)-2-methylpropanoate]: the half-maximal inhibitory concentration (IC50) amounted to 1.1 nM.

Take `N#CC1(CNc2cccc(-c3cc(N[C@@H]4CC[C@@H](N(CC5CCCO5)CC5CCCO5)C4)ncc3Cl)n2)CCOCC1` (stereo partly shown) [Example 407]: the IC50 was determined as 5.5 nM. Against the preceding molecule, the IC50 is about 5-fold higher.

Consider `N#CC1(COc2cncc(-c3cc(N[C@H]4CC[C@H](N)CC4)ncc3Cl)n2)CCOCC1` [Compound 511, 4-(((6-(2-((trans-4-aminocyclohexyl)amino)-5-chloropyridin-4-yl)pyrazin-2-yl)oxy)methyl)tetrahydro-2H-pyran-4-carbonitrile], for which half-maximal inhibition (IC50) was put at 0.6 nM.

Take `CN(C)C(=O)CN[C@H]1CC[C@H](Nc2cc(-c3cccc(NCC4(C#N)CCOCC4)n3)c(Cl)cn2)CC1` [Compound 423, 2-((trans-4-((5′-chloro-6-(((4-cyanotetrahydro-2H-pyran-4-yl)methyl)amino)-[2,4′-bipyridin]-2′-yl)amino)cyclohexyl)amino)-N,N-dimethylacetamide]: the half-maximal inhibitory concentration (IC50) was under 0.5 nM.

Take `CC(C)S(=O)(=O)NC[C@H]1CC[C@H](Nc2cc(-c3cccc(NCC4(C#N)CCOCC4)n3)c(Cl)cn2)CC1` [Compound 495, N-((trans-4-((5′-chloro-6-(((4-cyanotetrahydro-2H-pyran-4-yl)methyl)amino)-[2,4′-bipyridin]-2′-yl)amino)cyclohexyl)methyl) propane-2-sulfonamide]: the IC50 was under 0.5 nM.

As for `N#CC1(CNc2cccc(-c3cc(N[C@H]4CC[C@H](N)CC4)ncc3F)n2)CCOCC1` [Compound 479, 4-(((2′-((trans-4-aminocyclohexyl)amino)-5′-fluoro-[2,4′-bipyridin]-6-yl)amino)methyl)tetrahydro-2H-pyran-4-carbonitrile], the IC50 is under 0.5 nM.

Turning to `COC[C@H](C)N[C@H]1CC[C@H](Nc2cc(-c3ccc(F)c(NC[C@@H]4CCOC(C)(C)C4)n3)c(Cl)cn2)CC1` [Compound 462, 5′-chloro-N6-(((R)-2,2-dimethyltetrahydro-2H-pyran-4-yl)methyl)-5-fluoro-N2′-(trans-4-(((S)-1-methoxypropan-2-yl)amino)cyclohexyl)-[2,4′-bipyridine]-2′,6-diamine], the half-inhibitory concentration (IC50) turned out to be 1.2 nM.

`N[C@H]1CC[C@H](Nc2cc(-c3cccc(NCC4(O)CCOCC4)n3)c(Cl)cn2)CC1` [Compound 450, 4-(((2′-((trans-4-aminocyclohexyl)amino)-5′-chloro-[2,4′-bipyridin]-6-yl)amino)methyl)tetrahydro-2H-pyran-4-ol] showed an IC50 of 1.5 nM.

`N#CC1(CNc2cccc(-c3cc(N[C@H]4CC[C@H](N[C@@H]5CCOC5)CC4)ncc3Cl)n2)CCOCC1` [Compound 470, 4-(((5′-chloro-2′-((trans-4-(((R)-tetrahydrofuran-3-yl)amino)cyclohexyl)amino)-[2,4′-bipyridin]-6-yl)amino)methyl)tetrahydro-2H-pyran-4-carbonitrile] displayed an IC50 of under 0.5 nM.

Consider `COC[C@@H](C)N[C@H]1CC[C@H](Nc2cc(-c3cccc(NCC4(C#N)CCOCC4)n3)c(F)cn2)CC1` [Compound 471, 4-(((5′-fluoro-2′-((trans-4-(((R)-1-methoxypropan-2-yl)amino)cyclohexyl)amino)-[2,4′-bipyridin]-6-yl)amino)methyl)tetrahydro-2H-pyran-4-carbonitrile], for which the 50% inhibitory concentration (IC50) was under 0.5 nM.

`C[C@@H]1CN([C@H]2CC[C@@H](Nc3cc(-c4cccc(NCC5(C#N)CCOCC5)n4)c(Cl)cn3)CC2)C[C@H](C)O1` [Compound 427, 4-(((5′-chloro-2′-((cis-4-((2S,6R)-2,6-dimethylmorpholino)cyclohexyl)amino)-[2,4′-bipyridin]-6-yl)amino)methyl)tetrahydro-2H-pyran-4-carbonitrile] yielded a half-maximal inhibitory concentration (IC50) of 8.2 nM.

In turn, `C[C@@H]1CN([C@H]2CC[C@H](Nc3cc(-c4cccc(NCC5(C#N)CCOCC5)n4)c(Cl)cn3)CC2)C[C@H](C)O1` [Compound 426, 4-(((5′-chloro-2′-((trans-4-((2S,6R)-2,6-dimethylmorpholino)cyclohexyl)amino)-[2,4′-bipyridin]-6-yl)amino)methyl)tetrahydro-2H-pyran-4-carbonitrile] yielded an IC50 of at most 0.5 nM.

In turn, `CO[C@@H]1CCN([C@H]2CC[C@H](Nc3cc(-c4cccc(NCC5(C#N)CCOCC5)n4)c(Cl)cn3)CC2)C1` [Compound 477, 4-(((5′-chloro-2′-((trans-4-((R)-3-methoxypyrrolidin-1-yl)cyclohexyl)amino)-[2,4′-bipyridin]-6-yl)amino)methyl)tetrahydro-2H-pyran-4-carbonitrile] registered an IC50 of 0.8 nM.

`CS(=O)(=O)NC[C@H]1CC[C@H](Nc2cc(-c3cccc(NCC4(C#N)CCOCC4)n3)c(Cl)cn2)CC1` [Compound 494, N-((trans-4-((5′-chloro-6-(((4-cyanotetrahydro-2H-pyran-4-yl)methyl)amino)-[2,4′-bipyridin]-2′-yl)amino)cyclohexyl)methyl) methanesulfonamide] had an IC50 of under 0.5 nM.

Consider `COCCN[C@H]1CC[C@H](Nc2cc(-c3cncc(OCC4(C#N)CCOCC4)n3)c(Cl)cn2)CC1` [Compound 510, 4-(((6-(5-chloro-2-((trans-4-((2-methoxyethyl)amino)cyclohexyl)amino)pyridin-4-yl)pyrazin-2-yl)oxy)methyl)tetrahydro-2H-pyran-4-carbonitrile], for which 1.3 nM corresponded to half-maximal inhibition (IC50).

Molecule `CS(=O)(=O)CCN[C@H]1CC[C@H](Nc2cc(-c3cccc(NCC4(C#N)CCOCC4)n3)c(Cl)cn2)CC1` [Compound 422, 4-(((5′-chloro-2′-((trans-4-((2-(methylsulfonyl)ethyl)amino)cyclohexyl)amino)-[2,4′-bipyridin]-6-yl)amino)methyl)tetrahydro-2H-pyran-4-carbonitrile] gave a half-inhibitory concentration (IC50) of under 0.5 nM.

(Values after US20130303507A1 (Novartis AG, priority 2011, published 2013).)
